For data set [1], the system named is murine mammary 16/C adenocarcinoma. Kind of data set: Example A: tumor regression by ADM with or without electrostatic field exposure in tumor-bearing mice. The data set is classed as in vivo, B6C3F1 mouse.
Description: The inventor's research protocol used the B6C3F1 mouse strain. […] For the inventor's studies, female mice were implanted with murine mammary 16/C adenocarcinoma, a commonly used tumor for cancer research. […] Approximately equal-sized tumor fragments were implanted in each mouse's axillary region through a puncture in the inguinal region. All test animals were approximately six weeks old, with a body weight of 17 to 20 grams at the time of implant. Also, food and water were provided ad libitum throughout each study, and all Groups were exposed to the same temperature and light conditions (lights on 12 hours and off 12 hours each day). The studies were blinded in both the assignment of the animals to the study groups, and in all tumor measurements.
In the first study noted here, four groups of 11 tumor bearing animal each were used. […] All of the animals were treated with 12 mg/kg ADM on day 4, and housed in cages containing an insulated metal screen suspended 25.4-mm above the animals.
GA: Control, treated with ADM and no electrostatic field exposure. The screen above animals was not charged.
GB: The screen was charged, and changed from positive to negative 15 kV DC once each 15 minutes.
GC: The screen was charged 15 kV DC, and changed from positive to negative once each 15 minutes. The animals were on a grounded wire grid cage floor (115 mm between the screen and floor).
GD: The screen was charged, and changed from positive to negative 15 kV once each 15 minutes. There was no ground plane nearby.
The subject of the next data set is B6C3F1 mouse. Kind of data set: Example B: animal deaths after ADM with or without electrostatic field exposure in tumor-bearing mice. The data set is classed as in vivo. The arrangement: key to animal death: “X” indicates an animal death. The source says:
Before methods for practicing the present invention are discussed, it will be helpful to note the results of examples of the inventor's studies with animals exposed to electrostatic fields, and to electrostatic fields and chemicals in combination. The total scope of the inventor's studies regarding electrostatic field influence inside a living body has involved over 350 tumor bearing rodents, however for the sake of brevity only four such studies will be noted here. The inventor's research protocol used the B6C3F1 mouse strain. This mouse is recognized by the National Cancer Institute as one Standard for chemotherapy research, and is one of the commonly accepted rodent species used in cancer studies. For the inventor's studies, female mice were implanted with murine mammary 16/C adenocarcinoma, a commonly used tumor for cancer research. The 16/C murine mammary tumor is particularly aggressive, and can normally grow from a barely visible, or even invisible, bump under the skin the day after the implant, to 10 to 20 percent of the animal's total body weight by day 14 (tumor size typically up to 4 grams). Approximately equal-sized tumor fragments were implanted in each mouse's axillary region through a puncture in the inguinal region. All test animals were approximately six weeks old, with a body weight of 17 to 20 grams at the time of implant. Also, food and water were provided ad libitum throughout each study, and all Groups were exposed to the same temperature and light conditions (lights on 12 hours and off 12 hours each day). The studies were blinded in both the assignment of the animals to the study groups, and in all tumor measurements.
After the tumors were allow to establish and grow for several days, the mice were treated with adriamycin (ADM), a commonly used chemotherapeutic agent, at dose levels based on their individual weight and known to be safe. Following this, the animals were blindly divided into the study groups. The growth rate of the tumors in a Control Group, without exposure to electrostatic fields, was compared to that of Test Groups that were under the influence of an electrostatic field. Tumor measurements were made by caliper using the prolate ellipsoid formula of the National Cancer Institute to convert the measurements into weight. This method allowed the tumor weight of each animal to be tracked throughout the study.
The mice in each Test Group were subjected to electrostatic fields with the use of special cages. When the application of electrostatic fields was required, special equipment was used to expose the desired animal groups to an electrostatic field with an intensity of approximately 79,000 V/m from a charged element insulated from the animals.
This study used three groups of 11 tumor-bearing animals each. There was not a statistical difference in the size of the animal tumors at the start of the study. All of the animals were treated twice with 8 mg/kg ADM given on days 3 and 5 (16 mg/kg total). In addition, Groups B&C were exposed to an electrostatic field for 4 hours following each injection.
GA: Control, treated with ADM and no electrostatic field exposure.
GB: ADM plus exposure to a negative 15 kV DC charged screen 25.4 mm above, with a grounded grid below, the animals (90 mm between screen and grid).
GC: ADM plus exposure to 15 minute cycles of positive then negative 15 kV DC on a screen 25.4 mm above, with a grounded grid below, the animals (90 mm between screen and grid).
In this study the inventor inadvertently allowed the applied electrostatic fields in Groups B and C to increase the affect of the ADM to a lethal level. […] The electrostatic fields Groups B and C were exposed to increased the reaction of body cells to the ADM, creating the effect of a lethal overdose. […]

Consider `COc1cccc2c1C(=O)c1c(O)c3c(c(O)c1C2=O)C[C@@](O)(C(=O)CO)C[C@@H]3O[C@H]1C[C@H](N)[C@H](O)[C@H](C)O1` [ADM, adriamycin], for which the tumor wt. loss in data set [1] (GA: 12 mg/kg ADM on day 4, no electrostatic field exposure (screen not charged)) is −24%; in data set [1] (GB: 12 mg/kg ADM on day 4 plus screen changed positive to negative 15 kV DC each 15 minutes, grounded wire grid below cage) it was −86%; in data set [1] (GC: 12 mg/kg ADM on day 4 plus screen 15 kV DC changed positive to negative each 15 minutes, animals on grounded wire grid cage floor), −80%; in data set [1] (GD: 12 mg/kg ADM on day 4 plus screen changed positive to negative 15 kV each 15 minutes, no ground plane nearby), −75%. Moreover, the ill affect result in the data set with B6C3F1 mouse (GA: 8 mg/kg ADM days 3 and 5, without exposure to a static field) is “no ill affect until day 30”. The animal death entry in the data set on B6C3F1 mouse (Group A: 8 mg/kg ADM days 3 and 5, no field, day 30 (death from tumor, not ADM)) is given as “X”; with B6C3F1 mouse (Group B: 8 mg/kg ADM days 3 and 5 plus negative 15 kV DC field 4 hours after each injection, day 12), “XXX”; in the data set on B6C3F1 mouse (Group B: 8 mg/kg ADM days 3 and 5 plus negative 15 kV DC field 4 hours after each injection, day 18), “X”; in the data set with B6C3F1 mouse (Group B: 8 mg/kg ADM days 3 and 5 plus negative 15 kV DC field 4 hours after each injection, day 19) it was “X”; with B6C3F1 mouse (Group B: 8 mg/kg ADM days 3 and 5 plus negative 15 kV DC field 4 hours after each injection, day 22) it was “X”; in the data set with B6C3F1 mouse (Group B: 8 mg/kg ADM days 3 and 5 plus negative 15 kV DC field 4 hours after each injection, day 28) it was “X”. In addition, the animal death result in the data set with B6C3F1 mouse (Group C: 8 mg/kg ADM days 3 and 5 plus 15 minute cycles of positive then negative 15 kV DC field 4 hours after each injection, day 11) was “X”; in the data set on B6C3F1 mouse (Group C: 8 mg/kg ADM days 3 and 5 plus 15 minute cycles of positive then negative 15 kV DC field 4 hours after each injection, day 12), “XXXXX”. For the same compound, the “necropsy of the dead animals” value in the data set on B6C3F1 mouse (Groups B and C: 8 mg/kg ADM days 3 and 5 plus electrostatic field) is reported as “obvious heart enlargement”.

The record behind these values is US6488564B1, “Brassiere protecting against eletrostatic field induced tissue degradation” (priority 1999, dated 2002).
